Measured values taken from patent US9254292B2, “Fused tetracycle derivatives and methods of use thereof for the treatment of viral diseases” (Merck Sharp & Dohme Corp., priority 2010, dated 2016).

What was measured:
HCV replicon 1a WT = experiment: Cell-based HCV replicon assay, genotype 1a WT; parameters: species or system Hepatitis C virus; settings: replicon cells, day 3, replicon RNA by real time PCR (Taqman)
Experimental: (§1) To measure cell-based anti-HCV activity of selected compounds of the present invention, replicon cells were seeded at 5000 cells/well in 96-well collagen I-coated Nunc plates in the presence of the test compound. Various concentrations of test compound, typically in 10 serial 2-fold dilutions, were added to the assay mixture, with the starting concentration ranging from 250 μM to 1 μM. The final concentration of DMSO was 0.5%, fetal bovine serum was 5%, in the assay media. Cells were harvested on day 3 by the addition of 1× cell lysis buffer (Ambion cat #8721). The replicon RNA level was measured using real time PCR (Taqman assay). The amplicon was located in 5B. The PCR primers were: 5B.2F, ATGGACAGGCGCCCTGA (SEQ ID NO. 1); 5B.2R, […] (SEQ ID NO. 2); the probe sequence was FAM-labeled CACGCCATGCGCTGCGG (SEQ ID NO. 3). GAPDH RNA was used as endogenous control and was amplified in the same reaction as NS5B (multiplex PCR) using primers and VIC-labeled probe recommended by the manufacturer (PE Applied Biosystem). The real-time RT-PCR reactions were run on ABI PRISM 7900HT Sequence Detection System using the following program: 48° C. for 30 minutes, 95° C. for 10 minutes, 40 cycles of 95° C. for 15 sec, 60° C. for 1 minutes The ΔCT values (CT5B-CTGAPDH) were plotted against the concentration of test compound and fitted to the sigmoid dose-response model using XLfit4 (MDL). EC50 was defined as the concentration of inhibitor necessary to achieve ΔCT=1 over the projected baseline; EC90 the concentration necessary to achieve ΔCT=3.2 over the baseline. Alternatively, to quantitate the absolute amount of replicon RNA, a standard curve was established by including serially diluted T7 transcripts of replicon RNA in the Taqman assay. All Taqman reagents were from PE Applied Biosystems. Such an assay procedure was described in detail in e.g. Malcolm et al., Antimicrobial Agents and Chemotherapy 50: 1013-1020 (2006).
(§2) HCV replicon assay data was calculated for selected compounds of the present invention using this method and is provided in the table below.

HCV replicon 1b WT = experiment: Cell-based HCV replicon assay, genotype 1b WT; parameters: species or system Hepatitis C virus; settings: replicon cells, day 3, replicon RNA by real time PCR (Taqman)
Experimental: as §1, §2

HCV replicon 1a Y93H = experiment: Cell-based HCV replicon assay, genotype 1a Y93H mutant; settings: Hepatitis C virus, 72 h, read-out: Replicon EC50 1a Y93H
Experimental: To measure cell-based anti-HCV activity of selected compounds of the present invention, replicon cells were seeded at 5000 cells/well in 96-well collagen I-coated Nunc plates in the presence of the test compound. Various concentrations of test compound, typically in 10 serial 2-fold dilutions, were added to the assay mixture, with the starting concentration ranging from 250 μM to 1 μM. The final concentration of DMSO was 0.5%, fetal bovine serum was 5%, in the assay media. Cells were harvested on day 3 by the addition of 1× cell lysis buffer (Ambion cat #8721). The replicon RNA level was measured using real time PCR (Taqman assay). The amplicon was located in 5B. The PCR primers were: 5B.2F, ATGGACAGGCGCCCTGA (SEQ ID NO. 1); 5B.2R, […] (SEQ ID NO. 2); the probe sequence was FAM-labeled CACGCCATGCGCTGCGG (SEQ ID NO. 3). GAPDH RNA was used as endogenous control and was amplified in the same reaction as NS5B (multiplex PCR) using primers and VIC-labeled probe recommended by the manufacturer (PE Applied Biosystem). […] Alternatively, to quantitate the absolute amount of replicon RNA, a standard curve was established by including serially diluted T7 transcripts of replicon RNA in the Taqman assay. […]
as §2

## COC(=O)NC(C(=O)N1CCC[C@@H]1c1ncc(-c2ccc3c(c2)c(F)c2n3CCOc3cc(-c4cnc(C5CCCN5C(=O)[C@@H](NC(=O)OC)C(C)C)[nH]4)ccc3-2)[nH]1)C(C)C (some centres unmarked) [Compound 10]
HCV replicon 1a WT
  EC50: 2 nM
HCV replicon 1b WT
  EC50: 0.7 nM

## COC(=O)NC(C(=O)N1CCC[C@@H]1c1ncc(-c2ccc3c(c2)c(F)c2n3CCOc3cc(-c4cnc(C5CCCN5C(=O)[C@@H](NC(=O)OC)C(C)C)[nH]4)ccc3-2)[nH]1)C(C)C (some centres unmarked) [Compound 11]
HCV replicon 1a WT
  EC50: 0.01 nM
HCV replicon 1b WT
  EC50: 0.005 nM

## COC(=O)NC(C(=O)N1CCC[C@H]1c1ncc(-c2ccc3c(c2)c(F)c2n3CCOc3cc(-c4cnc(C5CCCN5C(=O)[C@@H](NC(=O)OC)C(C)C)[nH]4)ccc3-2)[nH]1)C(C)C (some centres unmarked) [Compound 9]
HCV replicon 1a WT
  EC50: 1.18 nM
HCV replicon 1b WT
  EC50: 0.27 nM

## COC(=O)N[C@H](C(=O)N1CCC[C@H]1c1ncc(-c2ccc3c(c2)OCCc2c-3oc3ccc(-c4cnc([C@@H]5CCCN5C(=O)[C@@H](NC(=O)OC)C(C)C)[nH]4)cc23)[nH]1)C(C)C [Compound 5]
HCV replicon 1a Y93H
  EC50: 186 nM
HCV replicon 1a WT; Hepatitis C virus, 72 h
  EC50: 0.015 nM
HCV replicon 1b WT; Hepatitis C virus, 72 h
  EC50: 0.001 nM

## COC(=O)NC(C(=O)N1CCC[C@H]1c1ncc(-c2ccc3c(c2)c(F)c2n3CCOc3cc(-c4cnc(C5CCCN5C(=O)[C@@H](NC(=O)OC)C(C)C)[nH]4)ccc3-2)[nH]1)C(C)C (some centres unmarked) [Compound 8]
HCV replicon 1a WT
  EC50: 0.016 nM
HCV replicon 1b WT
  EC50: 0.007 nM

## COC(=O)NC(C(=O)N1CCC[C@H]1c1ncc(-c2ccc3c(c2)cc2n3CCOc3cc(-c4cnc(C5CCCN5C(=O)[C@@H](NC(=O)OC)C(C)C)[nH]4)ccc3-2)[nH]1)C(C)C (some centres unmarked) [Compound 7]
HCV replicon 1a Y93H
  EC50: 565 nM
HCV replicon 1a WT; Hepatitis C virus, 72 h
  EC50: 0.01 nM
HCV replicon 1b WT; Hepatitis C virus, 72 h
  EC50: 0.003 nM
